Data: patent US9084778B2, “Topical compositions containing a retinoid of the oil-in-water emulsion type” (GALDERMA RESEARCH & DEVELOPMENT, priority 2012, dated 2015)

Tests used:
[1] = Maximum solubility in fat phase excipients determined by HPLC; assay type: physicochemical
Excerpt: In order to obtain an oil in water emulsion containing a compound with the general formula (I) in the fat phase, pre-formulation studies have been conducted to provide evidence of the excipients allowing good solubilisation as well as good stability of the active ingredient.
(1) List of fat phase excipients in which the maximum solubility has been determined by HPLC:
The limit, below which the compounds of general formula (1) are considered non-solubilized, is 0.1% by weight.

[2] = Stability of compound A in its principal solvents; assay type: physicochemical
Excerpt: (2) Stability of compound A in its principal solvents:
(§1) The limits fixed for high stability are 95%-105% as a percentage relative to TO.

[3] = Stability of compound A in mixtures of excipients (solvent/surfactants) determined by HPLC; assay type: physicochemical
Excerpt: (3) Stability of compound A in mixtures of excipients (solvent/surfactants) determined by HPLC:
Studies of stability of compound A solubilised in oils (in which it is stable) in the presence of surfactants have been conducted:
as §1

[4] = "Single time" cutaneous penetration study ex vivo (Franz cells, 16 h); assay type: in vitro ADME; settings: ex vivo human skin, the 2 formulae evaluated
Method: Two types of cutaneous penetration studies were carried out ex vivo on human skin. In these studies compound A corresponds to 3″-tert-butyl-4′-(2-hydroxy-ethoxy)-4″-pyrrolidin-1-yl-[1,1′;3′,1″]-terphenyl-4-carboxylic acid.
“Single Time” Cutaneous Penetration Study:
In this study the Formula is applied for 16 hours to the surface of the skin. After the application COMPOUND A is quantified in the different compartments of the skin: stratum corneum, epidermis, dermis and receiving liquid according to the validated bioanalysis method.
The bioanalysis was conducted by mass spectrometry in tandem by positive electrospray ionisation using a Xevo device (Waters). The limit of quantification for compound A is 1 ng/mL.
The conditions of LC/MS/MS developed enabled up to 0.1% of the doe applied in each of the compartments to be detected (unabsorbed dose, stratum, epidermis, dermis and receiving liquid).
In this type of “single point” study the parameters considered are: • a. The distribution profile in the different compartments (qualitative data) • b. The penetration in the epidermis+dermis compartment (numerical data) FIG. 1

CC(C)(C)c1cc(-c2cc(-c3ccc(C(=O)O)cc3)ccc2OCCO)ccc1N1CCCC1 [Compound A, 3″-tert-butyl-4′-(2-hydroxy-ethoxy)-4″-pyrrolidin-1-yl-[1,1′;3′,1″]-terphenyl-4-carboxylic acid]
Maximum solubility ([1]; in Arlasolve DMI (Dimethyl Isosorbide)): 0.400% | Maximum solubility ([1]; in Benzyl alcohol (Benzyl Alcohol)): 2.388% | Maximum solubility ([1]; in Brij 30 (Laureth-4)): 2.03% | Maximum solubility ([1]; in Capryol 90 (Propylene glycol monocaprylate)): 0.802% | Maximum solubility ([1]; in Crodamol IPM (Isopropyl myristate)): <0.1% | Maximum solubility ([1]; in Hydrolite 5P (Pentylene glycol)): 0.482% | Maximum solubility ([1]; in Phenoxetol (Phenoxyethanol)): 1.957% | Stability results ([2]; COMPOUND A 0.005% in Miglyol 812N (Caprylic/capric triglycerides), 40° C.): Stable/Ok 6 Months | Stability results ([2]; COMPOUND A 0.005% in Sweet almond oil, 40° C.): Stable/Ok 6 Months | Stability results ([2]; COMPOUND A 0.05% in Arlacel 83V Pharma (Sorbitan Sesquioleate), 40° C.): Stable/Ok 6 Months | Stability results ([2]; COMPOUND A 0.05% in Arlamol E (PPG-15 stearyl ether), 40° C.): Stable/Ok 6 Months | Stability results ([2]; COMPOUND A 0.05% in Arlasolve DMI (Dimethyl Isosorbide)): Unstable | Stability results ([2]; COMPOUND A 0.05% in Benzyl Alcohol): Unstable | Stability results ([2]; COMPOUND A 0.05% in Brij 30 (Laureth-4)): Unstable | Stability results ([2]; COMPOUND A 0.05% in Capryol 90 (Propylene glycol monocaprylate), 40° C.): Stable/Ok 6 Months | Stability results ([2]; COMPOUND A 0.05% in Crodamol DA (Diisopropyl Adipate), 40° C.): Stable/Ok 6 Months | Stability results ([2]; COMPOUND A 0.05% in Dipropylene Glycol Care (Dipropylene glycol)): Unstable | Stability results ([2]; COMPOUND A 0.05% in Eutanol G (Octyldodecanol)): Unstable | Stability results ([2]; COMPOUND A 0.05% in Labrafil M1944CS (Apricot Kernel Oil PEG-6 Ester), 40° C.): Stable/Ok 6 Months | Stability results ([2]; COMPOUND A 0.05% in Lauroglycol FCC (Propylene glycol laurate), 40° C.): Stable/Ok 6 Months | Stability results ([2]; COMPOUND A 0.05% in Marcol 152 (Parrafinum liquidum)): Unstable | Stability results ([2]; COMPOUND A 0.05% in Myritol PC (Propylene glycol dicaprylate/dicaprate)): Unstable | Stability results ([2]; COMPOUND A 0.05% in Phenoxetol (Phenoxyethanol), 40° C.): Stable/Ok 6 Months | Stability results ([3]; COMPOUND A 0.05% in Arlacel 165/Arlamol E, 40° C.): Stable/Ok 3 Months | Stability results ([3]; COMPOUND A 0.05% in Arlacel 165/Lauroglycol FCC): Unstable | Stability results ([3]; COMPOUND A 0.05% in Brij 721/Arlamol E, 40° C.): Stable/Ok 3 Months | Stability results ([3]; COMPOUND A 0.05% in Brij 721/Lauroglycol FCC, 40° C.): Stable/Ok 3 Months | Stability results ([3]; COMPOUND A 0.05% in Cremophor EL/Labrafil M1944CS): Unstable | Stability results ([3]; COMPOUND A 0.05% in Cremophor EL/Lauroglycol FCC): Unstable | Stability results ([3]; COMPOUND A 0.05% in Eumulgin B2/Arlamol E, 40° C.): Stable/Ok 3 Months | Stability results ([3]; COMPOUND A 0.05% in GlucateSS-Glucamate SSE-20/Arlamol E): Unstable | Stability results ([3]; COMPOUND A 0.05% in GlucateSS-Glucamate SSE-20/Lauroglycol FCC, 40° C.): Stable/Ok 3 Months | Stability results ([3]; COMPOUND A 0.05% in Simulsol M45/Crodamol DA): Unstable | Stability results ([3]; COMPOUND A 0.05% in Tween 80/Arlamol E): Unstable | Stability results ([3]; COMPOUND A 0.2% in Cremophor EL/Labrafil M1944CS): Unstable | Stability results ([3]; COMPOUND A 0.2% in Cremophor RH40/Crodamol DA): Unstable | Stability results ([3]; COMPOUND A 0.2% in Simulsol M45/Crodamol DA): Unstable | Stability results ([3]; COMPOUND A 0.2% in Tween 80/Hexylene glycol): Unstable | Stability results ([3]; COMPOUND A 0.2% in Tween 80/Lauroglycol FCC): Unstable | Compound A in the receiving liquid [4]: not detected
